Data published in patent US20220242827A1, “PHENYLMETHYLPYRAZOLONE COMPOUND HAVING A NOVEL CRYSTAL FORM, AND METHOD FOR PRODUCING SAME” (SIA EMTEKO HOLDING, priority 2019, published 2022).
≈ marks a conversion by molar mass, not a printed value.

Key:
Assay type in all cases: physicochemical
Solubility in water = assay: Solubility in water
Description: The solubility of the obtained samples was checked by dissolving in water with vigorous stirring for 30 minutes at 25° C.

[1] = Electrostatic adhesion model experiment in 316L stainless steel tank; conditions: for surface area of the tank covered with the FMP crystals: 316L stainless steel tank, after thorough mixing and release
Description: The following model experiment was performed to test the ability of electrostatic adhesion of the new polymorphic form. The FMP sample was placed in a 316L stainless steel tank, similar to the steel used to make working parts of industrial pharmaceutical equipment. After thorough mixing in the tank, the PMF was released from it and the surface area of the tank covered with the FMP crystals was measured. For the known polymorphic form, this figure was 19.5%, for the new form—12.8%, which is about one third less.

[2] = Storage stability in climate chamber at 25° C. and 60% relative humidity for 24 months; conditions: for pH: normalization 4.5-5.5; for Quantification: normalization more than 99.0; for Impurity 1: normalization not more than 0.1%; for Sum of impurities: normalization not more than 0.3%; for stability on storage (content of the basic substance, content of impurities, pH): 60% humidity
Description: The improved stability of the resulting polymorphic form was confirmed by experiments in a climate chamber at 25° C. and 60% humidity.
Comparison of Critical Quality Indicators of Known and Novel Polymorphic Forms of FMP After 24 Months of Storage at 25° C. and 60% Relative Humidity

[3] = 24 months at 25° C. and 60% relative humidity

solubility (comparison among the samples) (Solubility in water; among samples #1 to #6) | solubility at 30 min (Solubility in water; water, 25 °C, thermodynamic from solid, dissolving in water with vigorous stirring for 30 minutes at 25° C.) [µg/mL] | surface area of the tank covered with the FMP crystals [1] [%] | electrostatic index (comparison among the samples) ([1]; among samples #1 to #6) | Description ([2]; 0 months) | pH ([2]; 0 months) | Quantification ([2]; 0 months) [%] | Impurity 1 ([2]; 0 months) [%] | Sum of impurities ([2]; 0 months) [%] | Description [2, 3] | pH [2, 3] | Quantification [2, 3] [%] | Impurity 1 [2, 3] [%] | Sum of impurities [2, 3] [%] | stability on storage (content of the basic substance, content of impurities, pH) ([2]; 24 months, 25° C.) | stability on storage (content of the basic substance, content of impurities, pH) ([2]; 24 months, 25° C., listed as resulting polymorphic form) | rate of impurity formation ([2]; 24 months, 25° C., 60% relative humidity, versus known form) | solubility in water (Solubility in water; dissolving in water with vigorous stirring for 30 minutes at 25° C., listed as known forms) | surface area of the tank covered with the FMP crystals ([1]; listed as known polymorphic form) [%] | SMILES
best | 300 (≈ 1720 µM) | 12.8 | best | White | 4.8 | 99.8 | 0.03 | 0.09 | White | 4.8 | 99.7 | 0.04 | 0.10 | more stable | did not change its key characteristics | much lower | – | – | CC1=NN(c2ccccc2)C(=O)C1 [A new form of FMP, 1-phenyl-3-methyl-5-pyrazolone]
– | – | – | – | White | 4.7 | 99.8 | 0.02 | 0.07 | White | 4.6 | 99.6 | 0.08 | 0.18 | – | – | – | less than 0.2 mg/ml | 19.5 | CC1=NN(c2ccccc2)C(=O)C1 [Known form of FMP, 1-phenyl-3-methyl-5-pyrazolone, reference compound]
